Source: patent publication US8987486B2, “Trans-2-decenoic acid derivative and pharmaceutical agent containing the same” (Nagoya Industrial Science Research Institute, priority 2010, dated 2015)

Tests used:
[1] = test system: PC12 cells; assay: Evaluation using PC12 cells; immunostaining method for MAPK phosphorylation; format: cell-based; conditions: 30 minutes
Description: PC12 cells were stimulated using the compound of the present invention and the phosphorylation of MAPK was evaluated by means of immunostaining of the cells. The specific operation procedure is as follows.
A cover glass was placed on a 24-well plate followed by coating with poly-L-lysine. PC12 cells were seeded in a cell density of 50,000 cells/well. (The amount of the medium was 400 μL) On the first day after seeding the cells, the medium was exchanged to DMEM containing 1% fetal bovine serum (FBS) and 0.06% L-glutamine.
The compound which was previously diluted with DMSO was dissolved in 100 μl of medium. After 12 to 16 hours from the medium exchange, 100 μl out of 400 μl of the medium was removed from each well and, in place of that, 100 μl of a medium containing the compound was added.
After 30 minutes from the addition, fixation was conducted using 4% paraformaldehyde (PFA) for 10 minutes. The fixed cells were washed with a Tris-buffered saline (TBS) and a TBS containing 0.3% Triton X was added thereto followed by incubating at 37° C. for 30 minutes. This was washed with a TBS and blocked with a TBS containing 3% skim milk for 30 minutes (at room temperature).
This was washed with a TBS for one time and a primary antibody (anti-phospho-p42/44 MAPK antibody; cell signalings; #9102 being diluted with TBS to an extent of 1,000-fold) was added thereto followed by subjecting to the reaction at 4° C. for one night. The primary antibody was removed and washed with a TBS for three times. After that, the secondary antibody (Alexa 488 goat anti-rabbit antibody; Invitrogen: being diluted to an extent of 1,000-fold using a TBS containing 1% Block Ace) was added thereto and the reaction was conducted at room temperature for 3 hours. The secondary antibody was removed and, after washing with a TBS, fixation was conducted with 4% PFA for 1 hour.
This was washed with a TBS, Hoechst (diluted with a TBS to an extent of 2000-fold) was added thereto and nuclear staining was conducted. This was washed and mounted.
Taking the photographic pictures and counting the positive cells were conducted as follows. An all-in-one microscope (manufactured by Keyence) was used, exposing time for pMAPK (green) was made 1/2.8 s, the place was appropriately decided in a Hoechst-stained image and the pictures were taken. Four pictures per one glass sheet were taken.
Photoshop (Adobe) was used and the cells having above a certain luminance were judged to be positive. All cells were labeled using Hoechst 33342 manufactured by Invitrogen and the rate of pMAPK-positive cells in Hoechst-positive cells was calculated. (cf. Table 7)

[2] = test system: MAP kinase; assay: Activation (phosphorylation) of MAP kinase by Western immunoblotting in cultured cerebral cortex nerve cells; format: cell-based, rat; conditions: for Ratio of pMAPK to MAPK: Test Example 6, relative to control (0 μg/mL = 1.0)
Description: With regard to the compound 1 ((E)-2-(dimethylamino)-ethyl dec-2-enoate), activation of MAP kinase was measured as follows by a Western immunoblotting.
Nerve cells were dispersed from cerebral cortex of a fetal rat of 17 days age and said nerve cells were cultured for one day in a Dulbecco-modified Eagle medium (DMEM) containing 5% fetal bovine serum. The culture medium was exchanged with a serum-free medium (B27 supplement-added Neurobasal; Invitrogen) and the nerve cells were cultured at the density of 20,000 to 40,000 cells per cm^2 in a culture dish coated with polyornithine.
After three days, the compound 1 was added and the culture was continued for 30 minutes. After that, the cells were recovered on ice using a solution containing a phosphatase inhibitor where Tris-HCl buffer was a base. Protein concentration of the resulting cell extract was quantified using a BCA Protein Assay Kit (Takara Bio KK) and a certine amount of protein (3 μg for the measurement of MAP kinase and 5 μg for the measurement of phosphorylated MAP kinase) was subjected to polyacrylamide gel electrophoresis. The protein was transcribed from the gel after the electrophoresis to a PVDF membrane and a Western immunoblotting was carried out using each of an anti-MAP kinase antibody (Cell Signaling Technology) and an anti-phosphorylated MAP kinase antibody (Cell Signaling Technology) of the primary antibody.
After that, the reaction with an alkaline phosphatase-labeled anti-rabbit IgG antibody (Promega) of the secondary antibody was carried out so that the enzymatic activity was colorized whereupon the MAP kinase and the phosphorylated MAP kinase were measured.
Incidentally, the compound 1 was adjusted to the concentrations of 10 μg/ml, 30 μg/ml, 100 μg/ml and 300 μg/ml by dissolving in 0.1% DMSO. With regard to the control, 0.1% DMSO was added.
Intensity of the concentration of the above-obtained band of the gel subjected to electrophoresis was calculated and quantified using Image J (K. K. Bioarts). The numerical value for the MAP kinase using the compound 1 was divided by the numerical value for the MAP kinase of the control and, further, the numerical value for the phosphorylated MAP kinase using the compound 1 was divided by the numerical value for the phosphorylated MAP kinase of the control whereupon the ratio of the MAP kinase using the compound 1 to the control and the ratio of the phosphorylated kinase using the compound 1 to the control were determined.
After that, the resulting ratio of the phosphorylated MAP kinase to the control was divided by the resulting ratio of the MAP kinase to the control to determine the ratio of the phosphorylated MAP kinase to the MAP kinase (cf. Table 5). In Table 5, “MAPK” means a MAP kinase and “pMAPK” means a phosphorylated MAP kinase. “10”, “30”, “100” and “300” in Table 5 show the examples where 10 μg/ml, 30 μg/ml, 100 μg/ml and 300 μg/ml of the compound 1 were added.
MAP kinase and phosphorylated MAP kinase were measured for the compound 6 ((E)-2-(diethylamino)ethyl dec-2-enoate) and the compound 13 ((E)-2-(2-(diethylamino)ethoxy)ethyl dec-2-enoate) by the same method as in Test Example 1.
Each of the compounds 6 and 13 was dissolved in 0.1% DMSO to adjust to the concentration of 250 μg/ml. With regard to the control, 0.1% DMSO was added. With regard to the concentration of the resulting band of the gel subjected to electrophoresis, its intensity was calculated by the same method as in Test Example 1 using Image J (K. K. Bioarts) and the ratio of the phosphorylated MAP kinase to the control was divided by the resulting ratio of the MAP kinase to the control whereupon the ratio of the phosphorylated MAP kinase to the MAP kinase was determined (cf. Table 6).
With regard to the compound of the present invention, its activation for MAP kinase was measured by the same manner as in Test Example 1.
Each compound was dissolved in 0.1% DMSO to adjust to the concentrations of 30 μg/ml, 60 μg/ml, 125 μg/ml and 250 μg/ml. […]

[3] = test system: paclitaxel-induced peripheral nerve disorder rats; assay: von Frey test in paclitaxel-induced peripheral nerve disorder rats; format: in vivo; conditions: Rattus norvegicus, ip; single intraperitoneal dose of 300 μ/kg; higher of the thresholds after 1 hour and 5 hours; normal threshold 15; read-out: Recovery rate of 50% reaction threshold value (%)
Description: The effect of the compound of the present invention was tested for a peripheral nerve disorder which is a side effect induced by the administration of paclitaxel (an anti-cancer agent) such as hyperesthesia including allodynia (severe pain induced by such tactile stimuli which usually cause no pain). The compound of the present invention was intraperitoneally administered to rats as a test drug to conduct a von Frey test.
Male SD rats of six weeks age (one group comprising six rats) were used as experimental animals and paclitaxel (2 mg/kg) was intraperitoneally administered every other day for four times in total to prepare paclitaxel-induced peripheral nerve disorder rats. During 18 and 25 days or during 20 to 27 days after initiation of paclitaxel administration, the test drug was intraperitoneally administered in a single dose of […] and the following von Frey test was conducted.
The rats of the above (1) were placed in a transparent acrylic cage with a wire-meshed floor and habituated for about three minutes and the 50% reaction threshold values to the mechanical stimulus of right hind limb were measured before administration of the test drug and after 1, 5 and 24 hours from initiation of the administration.
The measurement was conducted using von Frey filaments (manufactured by North Coast Medical Inc.) in accordance with the methods of Chaplan, et al. (Journal of Neuroscience Methods, vol. 53, no. 1, pages 55 to 63, 1994) and Dixon, et al. (Annual Review of Pharmacology and Toxicology, vol. 20, pages 441 to 462, 1980). […] The case where the rat escaped at the instance of removing the filament was also called positive. When the positive reaction was noted, stimulus was conducted similarly using a filament of one rank weaker while, when no reaction was noted, stimulus was conducted similarly using a filament of one rank stronger and the point when the reaction changed from negative to positive or from positive to negative was called the first two reactions. After that, stimulus was conducted for continuous four times by the same up-down method. A 50% reaction threshold value to the mechanical stimulus was measured using the reaction to the six stimuli in total and then (mean value)±(standard error) for each group was calculated. Incidentally, when stimulus reached by that of 15.0 g without positive reaction or, when positive reaction continued to 0.4 g, then 15.0 g or 0.25 g was adopted as each threshold value, respectively. With regard to the higher 50% reaction threshold value between the 50% threshold values after 1 hour and 5 hours from administration of a test drug, a recovery rate (%) of the 50% reaction threshold value was calculated by the following expression in which 15 was adopted as the normal threshold value. Recovery rate (%) of 50% reaction threshold value=[(50% reaction threshold value after 1 hour or 5 hours from administration of test drug)−(50% reaction threshold value before administration of test drug)]/[(Normal threshold value)−(50% reaction threshold value before administration of test drug)]

| Compound | Rate of pMAPK-positive cells (%) ([1]; 62.5 μg/mL) | Rate of pMAPK-positive cells (%) ([1]; 125 μg/mL) | Rate of pMAPK-positive cells (%) ([1]; 250 μg/mL) | Ratio of pMAPK to MAPK ([2]; 30 μg/mL) | Ratio of pMAPK to MAPK ([2]; 60 μg/mL) | Ratio of pMAPK to MAPK ([2]; 125 μg/mL) | pMAPK/MAPK/Control ([2]; 250 μg/ml, Test Example 2, control = 1.00) | Rate of pMAPK-positive cells (%) ([1]; 500 μg/mL) | Ratio of pMAPK to MAPK ([2]; 250 μg/mL) | inhibition in vivo at 0.3 mg/kg [3] [%] |
| --- | --- | --- | --- | --- | --- | --- | --- | --- | --- | --- |
| CCCCCCC/C=C/C(=O)OCCOCCN(CC)CC [Compound 13, (E)-2-(2-(diethylamino)ethoxy)ethyl dec-2-enoate] | 35 | 35 | 52 | 2.6 | 3.1 | 1.3 | 1.46 |  |  |  |
| CCCCCCC/C=C/C(=O)OCCCCN(C)C [Compound 4, (E)-4-(dimethylamino)butyl dec-2-enoate] | 12 | 27 | 64 | 2.2 | 3.2 | 20.6 |  | 81 |  |  |
| CCCCCCC/C=C/C(=O)SCCN(CC)CC [Compound 56, (E)-S-2-(diethylamino)ethyl dec-2-enethioate] |  |  |  |  | 5.0 | 7.4 |  |  | 5.7 | 60.5 |
